Laboratory results: ChEMBL document CHEMBL1201862, “PubChem BioAssay data set” (2004)
Active and inactive are the calls of the source.

Experiments:
[1] = Luminescence Cell-Based Dose Response HTS to Identify Activators of Luciferase Translation or Activity in H4 […] Cells. [Related pubchem assays: 1829 (Project Summary), 1814 (Primary HTS)]; type: functional
[2] = target: Cyclin-dependent kinase 5/CDK5 activator 1 (Homo sapiens, UniProt Q00535); test: human CDK5 activity blockade – biochemical, microfluidic mobility shift, dry powder, selectivity assay for GSK-3 alpha inhibitor project, dose response (AID 588430)
Sequence of Cyclin-dependent kinase 5/CDK5 activator 1 (Q00535 whole entry): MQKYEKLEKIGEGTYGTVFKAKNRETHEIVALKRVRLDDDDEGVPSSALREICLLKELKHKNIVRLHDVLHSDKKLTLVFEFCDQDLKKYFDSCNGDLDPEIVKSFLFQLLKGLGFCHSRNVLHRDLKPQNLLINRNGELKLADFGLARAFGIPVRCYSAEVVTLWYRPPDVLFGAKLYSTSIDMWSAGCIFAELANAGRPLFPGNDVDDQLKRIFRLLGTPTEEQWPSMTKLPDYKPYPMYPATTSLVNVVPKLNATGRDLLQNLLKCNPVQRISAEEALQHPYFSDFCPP
Sequence of Cyclin-dependent kinase 5/CDK5 activator 1 (Q15078 whole entry, further chain): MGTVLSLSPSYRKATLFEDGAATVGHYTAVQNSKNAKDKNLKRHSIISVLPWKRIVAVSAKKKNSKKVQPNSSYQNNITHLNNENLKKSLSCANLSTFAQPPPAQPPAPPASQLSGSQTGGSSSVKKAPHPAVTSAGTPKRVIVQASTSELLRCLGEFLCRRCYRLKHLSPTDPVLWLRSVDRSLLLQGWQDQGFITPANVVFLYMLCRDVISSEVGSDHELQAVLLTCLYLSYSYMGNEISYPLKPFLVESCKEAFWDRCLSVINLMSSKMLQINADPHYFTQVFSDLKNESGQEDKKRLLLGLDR

[3] = system: H4; test: Luminescence Cell-Based Dose Response HTS to Identify Activators of 5'UTR Stem-Loop Driven Prion Protein mRNA Translation in H4 Neuroglioblastoma Cells. [Related pubchem assays: 1829 (Project Summary), 1814 (Primary HTS)]; type: functional; details: Homo sapiens
[4] = Luminescence Cell-Based Dose Confirmation to Identify Activators of 5'UTR Stem-Loop Driven Alpha-Synuclein mRNA Translation in H4 Neuroglioblastoma Cells. [Related pubchem assays: 1829 (Project Summary), 1814 (Primary HTS)]; type: functional
[5] = Luminescence Cell-Based Dose Response to Identify Activators of Luciferase Translation or Activity in H4-C Neuroglioblastoma Cells. [Related pubchem assays: 1829 (Project Summary), 1814 (Primary HTS)]; type: functional
[6] = Luminescence Cell-Based Dose Confirmation HTS to Identify Activators of 5'UTR Stem-Loop Driven Alpha-Synuclein mRNA Translation in H4 Neuroglioblastoma Cells. [Related pubchem assays: 1829 (Project Summary), 1814 (Primary HTS)]; type: functional
[7] = Luminescence Cell-Based Dose Response to Identify Activators of 5'UTR Stem-Loop Driven Prion Protein mRNA Translation in H4-C Neuroglioblastoma Cells. [Related pubchem assays: 1829 (Project Summary), 1814 (Primary HTS)]; type: functional
[8] = target: Glycogen synthase kinase-3 beta (Homo sapiens, UniProt P49841); test: Inhibition of Human GSK-3 beta Activity Measured in Biochemical System Using Microfluidics - 2063-05_Inhibitor_Dose_DryPowder_Activity_Set2. [Related pubchem assays (depositor defined):AID2709]
Sequence of Glycogen synthase kinase-3 beta (P49841 whole entry): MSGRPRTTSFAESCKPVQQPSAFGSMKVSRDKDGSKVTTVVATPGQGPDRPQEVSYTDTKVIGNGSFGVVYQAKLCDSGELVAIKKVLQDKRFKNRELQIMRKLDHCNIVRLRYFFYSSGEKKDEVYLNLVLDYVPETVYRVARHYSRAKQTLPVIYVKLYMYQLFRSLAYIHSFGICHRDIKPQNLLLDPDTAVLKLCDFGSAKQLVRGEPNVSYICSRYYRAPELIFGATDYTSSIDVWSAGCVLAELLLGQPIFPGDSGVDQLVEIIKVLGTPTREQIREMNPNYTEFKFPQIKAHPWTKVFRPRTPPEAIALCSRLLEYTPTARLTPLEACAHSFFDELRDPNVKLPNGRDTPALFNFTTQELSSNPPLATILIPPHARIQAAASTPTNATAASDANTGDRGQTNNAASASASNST

[9] = target: Glycogen synthase kinase-3 alpha (Homo sapiens, UniProt P49840); test: Inhibition of Human GSK-3 alpha Activity Measured in Biochemical System Using Microfluidics - 2063-06_Inhibitor_Dose_DryPowder_Activity_Set2. [Related pubchem assays (depositor defined):AID2709]
Sequence of Glycogen synthase kinase-3 alpha (P49840 whole entry): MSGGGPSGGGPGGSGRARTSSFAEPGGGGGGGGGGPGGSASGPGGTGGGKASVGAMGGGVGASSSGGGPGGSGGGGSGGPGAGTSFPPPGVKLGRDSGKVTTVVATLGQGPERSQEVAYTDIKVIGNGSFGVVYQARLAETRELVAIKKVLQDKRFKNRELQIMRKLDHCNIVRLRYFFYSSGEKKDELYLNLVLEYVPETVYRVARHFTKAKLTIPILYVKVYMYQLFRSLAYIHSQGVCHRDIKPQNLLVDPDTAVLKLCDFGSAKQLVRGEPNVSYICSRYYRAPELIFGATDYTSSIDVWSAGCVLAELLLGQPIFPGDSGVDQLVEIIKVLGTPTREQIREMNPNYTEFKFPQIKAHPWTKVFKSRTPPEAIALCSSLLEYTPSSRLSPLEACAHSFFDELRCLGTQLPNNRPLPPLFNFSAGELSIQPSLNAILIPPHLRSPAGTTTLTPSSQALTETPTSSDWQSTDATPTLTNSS

[10] = system: HEK293; test: optical interference in Abeta FP readout, dose response, artefact control for IDE activator project, biochemical, fluorescence polarization (AID 588442); type: functional, cell-based; details: Homo sapiens
[11] = target: T1, Insulin-degrading enzyme (Homo sapiens, UniProt P14735); test: cellular IDE activation of Abeta substrate cleavage – fluorescence polarization, HEK cells, dose response (AID 588439); type: functional, cell-based
T1 sequence (P14735 whole entry): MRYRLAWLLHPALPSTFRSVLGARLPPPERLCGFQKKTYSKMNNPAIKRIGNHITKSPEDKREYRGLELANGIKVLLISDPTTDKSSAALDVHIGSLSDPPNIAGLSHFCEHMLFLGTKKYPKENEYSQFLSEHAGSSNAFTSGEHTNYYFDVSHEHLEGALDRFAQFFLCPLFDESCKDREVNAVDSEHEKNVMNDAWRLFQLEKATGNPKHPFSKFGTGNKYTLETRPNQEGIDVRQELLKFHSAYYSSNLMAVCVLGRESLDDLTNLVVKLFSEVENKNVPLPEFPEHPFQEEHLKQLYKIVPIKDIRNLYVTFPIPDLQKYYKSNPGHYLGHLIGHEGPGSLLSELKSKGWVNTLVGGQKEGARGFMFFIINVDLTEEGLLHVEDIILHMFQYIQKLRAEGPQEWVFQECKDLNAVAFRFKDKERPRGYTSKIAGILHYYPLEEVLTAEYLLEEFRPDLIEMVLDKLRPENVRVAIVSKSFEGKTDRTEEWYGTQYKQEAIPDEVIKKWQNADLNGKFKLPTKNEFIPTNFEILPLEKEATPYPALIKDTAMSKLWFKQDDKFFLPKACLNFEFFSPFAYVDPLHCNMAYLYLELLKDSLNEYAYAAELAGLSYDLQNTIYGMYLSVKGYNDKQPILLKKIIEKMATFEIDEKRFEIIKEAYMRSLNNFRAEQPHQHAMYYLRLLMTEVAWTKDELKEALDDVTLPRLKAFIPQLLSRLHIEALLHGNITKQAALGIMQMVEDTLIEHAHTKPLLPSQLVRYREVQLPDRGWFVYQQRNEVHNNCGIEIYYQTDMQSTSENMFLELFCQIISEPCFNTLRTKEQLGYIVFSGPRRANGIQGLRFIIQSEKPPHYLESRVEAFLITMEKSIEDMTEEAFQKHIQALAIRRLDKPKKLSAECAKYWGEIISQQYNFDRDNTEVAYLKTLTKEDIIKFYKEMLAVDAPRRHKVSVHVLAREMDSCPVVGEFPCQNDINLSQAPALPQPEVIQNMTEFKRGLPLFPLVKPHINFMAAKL

[12] = system: HEK293; test: membrane integrity loss in HEK cells – cell-based, fluorescence, cytotoxicity control for IDE activator project, dose response (AID 588440); type: functional; details: Homo sapiens;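 also: cytotoxicity by LDH release measuring loss of membrane integrity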
[13] = target: T1, Insulin-degrading enzyme; test: recombinant IDE activation, cell-free – biochemical, fluorescence polarization, counter-screen for IDE activator project, dose response (AID 588681)
[14] = target: T2, Caspase-3 (Homo sapiens, UniProt P42574); test: SAR Analysis of small molecule inhibitors of Sentrin-specific proteases (SENPs) using a Caspase-3 Selectivity assay. [Related pubchem assays (depositor defined):AID2540, AID2599, AID434973, AID489001]; type: functional
T2 sequence (P42574 whole entry): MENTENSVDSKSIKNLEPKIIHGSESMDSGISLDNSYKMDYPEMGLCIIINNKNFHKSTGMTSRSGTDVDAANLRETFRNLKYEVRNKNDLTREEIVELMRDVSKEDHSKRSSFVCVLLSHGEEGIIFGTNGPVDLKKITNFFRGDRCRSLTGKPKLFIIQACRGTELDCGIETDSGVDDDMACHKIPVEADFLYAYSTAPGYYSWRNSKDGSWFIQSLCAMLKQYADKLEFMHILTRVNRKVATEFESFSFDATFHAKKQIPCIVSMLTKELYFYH

[15] = target: T3, Sentrin-specific protease 6 (Homo sapiens, UniProt Q9GZR1); test: SAR Analysis of small molecule inhibitors of Sentrin-specific protease 6 (SENP6) using a Luminescent assay. [Related pubchem assays (depositor defined):AID2582, AID2599]; type: functional
T3 sequence (Q9GZR1 whole entry): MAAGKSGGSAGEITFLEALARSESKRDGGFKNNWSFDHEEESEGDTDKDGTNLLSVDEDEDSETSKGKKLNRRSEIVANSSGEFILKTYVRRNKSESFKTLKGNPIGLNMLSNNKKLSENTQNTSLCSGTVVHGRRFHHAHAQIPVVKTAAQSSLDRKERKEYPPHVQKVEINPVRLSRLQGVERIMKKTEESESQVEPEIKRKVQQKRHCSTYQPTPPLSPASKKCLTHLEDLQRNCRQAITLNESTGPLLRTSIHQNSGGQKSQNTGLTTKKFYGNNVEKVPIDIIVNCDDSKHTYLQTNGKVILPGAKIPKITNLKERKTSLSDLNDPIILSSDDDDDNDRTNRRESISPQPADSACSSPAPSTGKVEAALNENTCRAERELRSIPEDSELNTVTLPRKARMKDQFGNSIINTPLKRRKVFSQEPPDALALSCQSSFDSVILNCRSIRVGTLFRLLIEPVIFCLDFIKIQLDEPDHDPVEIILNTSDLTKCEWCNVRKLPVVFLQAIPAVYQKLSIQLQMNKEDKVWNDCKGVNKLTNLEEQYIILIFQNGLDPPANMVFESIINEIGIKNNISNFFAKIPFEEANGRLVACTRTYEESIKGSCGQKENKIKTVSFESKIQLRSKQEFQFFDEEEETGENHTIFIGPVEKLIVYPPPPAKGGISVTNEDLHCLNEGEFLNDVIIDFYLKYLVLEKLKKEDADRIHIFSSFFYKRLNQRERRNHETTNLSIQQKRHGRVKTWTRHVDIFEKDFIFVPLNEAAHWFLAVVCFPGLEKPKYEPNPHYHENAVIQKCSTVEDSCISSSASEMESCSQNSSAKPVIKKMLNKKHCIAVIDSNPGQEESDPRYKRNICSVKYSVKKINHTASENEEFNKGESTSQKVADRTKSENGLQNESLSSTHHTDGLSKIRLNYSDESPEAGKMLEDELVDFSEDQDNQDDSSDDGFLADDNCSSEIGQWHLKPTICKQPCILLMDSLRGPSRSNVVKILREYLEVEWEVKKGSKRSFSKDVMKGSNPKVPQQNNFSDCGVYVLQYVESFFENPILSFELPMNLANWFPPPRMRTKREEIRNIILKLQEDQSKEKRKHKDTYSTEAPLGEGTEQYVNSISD

[16] = target: T4, Sentrin-specific protease 7 (Homo sapiens, UniProt Q9BQF6); test: inhibition of human SENP7 cleavage activity – biochemical, luminescence, SAR follow-up (AID 504497); type: functional
T4 sequence (Q9BQF6 whole entry): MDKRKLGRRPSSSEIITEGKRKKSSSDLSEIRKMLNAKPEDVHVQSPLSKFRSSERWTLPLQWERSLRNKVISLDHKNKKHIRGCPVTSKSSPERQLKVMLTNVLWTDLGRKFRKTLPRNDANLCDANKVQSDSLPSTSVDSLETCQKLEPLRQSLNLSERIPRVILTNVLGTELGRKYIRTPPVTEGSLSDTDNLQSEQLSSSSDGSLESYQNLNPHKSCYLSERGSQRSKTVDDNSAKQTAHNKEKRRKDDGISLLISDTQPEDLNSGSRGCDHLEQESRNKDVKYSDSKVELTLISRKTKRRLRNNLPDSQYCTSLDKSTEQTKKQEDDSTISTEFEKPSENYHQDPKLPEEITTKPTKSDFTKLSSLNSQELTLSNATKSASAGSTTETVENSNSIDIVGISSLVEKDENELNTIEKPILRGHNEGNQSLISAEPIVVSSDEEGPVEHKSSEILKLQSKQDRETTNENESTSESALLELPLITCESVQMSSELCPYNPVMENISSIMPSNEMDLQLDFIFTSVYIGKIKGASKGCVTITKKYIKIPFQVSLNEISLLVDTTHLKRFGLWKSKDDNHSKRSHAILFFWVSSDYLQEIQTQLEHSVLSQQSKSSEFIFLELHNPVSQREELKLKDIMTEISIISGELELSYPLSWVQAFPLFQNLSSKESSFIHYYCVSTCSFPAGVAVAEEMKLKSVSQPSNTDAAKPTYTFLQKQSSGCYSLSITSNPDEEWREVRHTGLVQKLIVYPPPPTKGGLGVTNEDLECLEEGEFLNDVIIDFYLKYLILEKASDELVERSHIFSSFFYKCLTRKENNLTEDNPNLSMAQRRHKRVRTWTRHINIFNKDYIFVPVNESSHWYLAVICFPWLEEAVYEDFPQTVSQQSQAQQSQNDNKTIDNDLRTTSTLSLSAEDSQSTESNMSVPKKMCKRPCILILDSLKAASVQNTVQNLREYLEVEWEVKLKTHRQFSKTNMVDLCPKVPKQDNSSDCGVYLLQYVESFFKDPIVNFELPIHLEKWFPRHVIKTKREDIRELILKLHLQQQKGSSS

[17] = target: T5, Sentrin-specific protease 8 (Homo sapiens, UniProt Q96LD8); test: inhibition of human SENP8 cleavage activity – biochemical, luminescence, SAR follow-up (AID 504501); type: functional
T5 sequence (Q96LD8 whole entry): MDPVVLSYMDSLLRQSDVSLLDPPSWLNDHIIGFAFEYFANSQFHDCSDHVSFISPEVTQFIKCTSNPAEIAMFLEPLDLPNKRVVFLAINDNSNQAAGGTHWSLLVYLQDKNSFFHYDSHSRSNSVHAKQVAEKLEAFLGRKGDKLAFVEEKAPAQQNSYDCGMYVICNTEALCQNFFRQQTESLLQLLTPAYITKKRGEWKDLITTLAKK

[18] = target: HSP90 (Plasmodium falciparum 3D7, UniProt Q8IL32); type: functional, organism-based
Sequence of HSP90 (Q8IL32 whole entry): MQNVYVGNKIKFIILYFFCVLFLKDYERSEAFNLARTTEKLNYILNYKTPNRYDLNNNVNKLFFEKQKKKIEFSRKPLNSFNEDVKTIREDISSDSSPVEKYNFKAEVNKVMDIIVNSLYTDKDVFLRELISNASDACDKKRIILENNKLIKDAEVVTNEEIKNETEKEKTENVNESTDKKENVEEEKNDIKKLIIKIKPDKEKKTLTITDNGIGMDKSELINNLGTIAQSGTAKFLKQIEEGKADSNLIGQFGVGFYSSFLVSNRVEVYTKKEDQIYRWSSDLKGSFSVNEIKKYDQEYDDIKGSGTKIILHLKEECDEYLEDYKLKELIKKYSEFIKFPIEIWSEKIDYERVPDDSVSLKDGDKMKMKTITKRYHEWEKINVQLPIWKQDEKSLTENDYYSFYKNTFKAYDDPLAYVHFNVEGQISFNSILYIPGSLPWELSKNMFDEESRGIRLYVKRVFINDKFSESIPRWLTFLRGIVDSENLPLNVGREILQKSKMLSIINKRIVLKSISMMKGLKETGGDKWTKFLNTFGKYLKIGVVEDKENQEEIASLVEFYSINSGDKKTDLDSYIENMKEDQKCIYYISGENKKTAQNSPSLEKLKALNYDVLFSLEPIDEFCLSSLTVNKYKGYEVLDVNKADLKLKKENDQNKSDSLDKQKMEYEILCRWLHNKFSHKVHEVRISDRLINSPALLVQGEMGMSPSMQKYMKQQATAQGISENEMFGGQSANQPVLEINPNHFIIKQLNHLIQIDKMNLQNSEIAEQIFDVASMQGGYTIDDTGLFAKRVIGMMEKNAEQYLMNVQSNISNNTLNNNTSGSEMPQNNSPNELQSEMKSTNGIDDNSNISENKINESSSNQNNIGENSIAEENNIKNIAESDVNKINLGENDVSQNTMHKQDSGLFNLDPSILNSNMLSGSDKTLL

[19] = target: T6, CAAX prenyl protease 2 (Saccharomyces cerevisiae S288c, UniProt Q03530); test: inhibition of Rce1p peptide cleavage – biochemical, plate reader, dry powder retest, dose response (AID 588851)
T6 sequence (Q03530 whole entry): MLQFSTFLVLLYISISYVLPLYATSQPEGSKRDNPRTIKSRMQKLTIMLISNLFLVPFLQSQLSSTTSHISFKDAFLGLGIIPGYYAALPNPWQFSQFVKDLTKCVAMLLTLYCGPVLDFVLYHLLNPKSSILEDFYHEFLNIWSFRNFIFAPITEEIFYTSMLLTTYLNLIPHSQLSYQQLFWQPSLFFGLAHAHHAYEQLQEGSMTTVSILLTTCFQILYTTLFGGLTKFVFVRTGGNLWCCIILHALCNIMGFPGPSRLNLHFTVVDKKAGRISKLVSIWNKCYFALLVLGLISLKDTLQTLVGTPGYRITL

[20] = target: T6, CAAX prenyl protease 2; type: biochemical

## CCNc1nc(N)c(C(=O)c2ccc(Cl)s2)s1
[1]
  EC50: 0.19 µM (active)
[2]
  AC50: 0.516 µM (active)
[3]
  EC50: > 120 µM (not active)
[4]
  EC50: 0.238 µM (active)
[5]
  EC50: > 12 µM (not active)
[6]
  EC50: 0.233 µM (active)
[7]
  EC50: 1.21 µM (active)
[8]
  AC50: < 0.016 µM (active)
[9]
  AC50: < 0.0218 µM (active)

## COc1ccc(C2CC(C(F)(F)F)n3nc(C(=O)O)c(Cl)c3N2)cc1OC (stereo not given)
[10]
  EC50: > 54.7 µM (inactive)
[11]
  EC50: > 54.7 µM (inactive)
[12]
  IC50: > 89.2 µM (inactive)
[13]
  EC50: 50.1 µM (inactive)

## CCc1cccc2c(C(=O)CN3C(=O)c4ccccc4S3(=O)=O)c[nH]c12
[14]
  IC50: > 99 µM (inactive)
[15]
  IC50: > 99 µM (inactive)
[16]
  IC50: > 99 µM (inactive)
[17]
  IC50: > 99 µM (inactive)

## CCCC1CCC(c2ccc(C(=N)NO)cc2)CC1 (stereo not given)
[18]
  AC50: 28.6 µM (active)

## Cc1cccc(-c2nnc(SCc3ccc(C#N)cc3)n2Cc2ccco2)c1
[19]
  AC50: 16.8 µM (active)
[20]
  AC50: 0.963 µM (active)
